Data on three molecules can be found in patent US20240279233A1, “MACROCYCLIC TAK1 INHIBITORS” (Aqilion AB, priority 2021, published 2024).

Values after ≈ are worked out from the molar mass of the structure shown.

For data set [1] the following is noted: from COC(=O)c1cccc2nc(NC(=O)c3cccc(C(=O)O)c3)n(CCCCCN)c12; amide bond; 14-membered ring; HATU/DIEA; 16.0 h; 2 steps.
The conditions of data set [2]: pH 7.4.
Description: The aqueous solubility of selected example compounds was determined as follows; 6 μL of DMSO stock solution of the selected example was added to 594 μL phosphate buffer (100 mM, pH 7.4). The resulting mixture was equilibrated over night (20-24 h, Alligator Shaker, room temperature). The mixture was then filtered (Millex LH 0.45 μm) and the concentration/solubility was determined by LC-UV quantification.
In data set [3] the target is human recombinant TAK1-TAB1 Kinase (TAK1 (1-303) and TAB1 (437-end)) (Homo sapiens (Human), UniProt O43318). As to the kind of experiment: TAK1 biochemical ADP-Glo kinase assay. As to conditions: 10 μM ATP, MBP substrate; read-out: TAK1 Mean IC50 (nM) @ 10 μM ATP. Summed up: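 Inhibition of human recombinant TAK1-TAB1 kinase was measured with a Promega ADP-Glo luminescence assay in 384-well plates. Compounds in 5% DMSO were pre-incubated 10 min with 2 μl TAK1-TAB1 (7.5 ng/μl) in buffer of Tris pH 7.5, MgCl2, DTT and BSA. MBP substrate and ATP were then added for 1 hour at room temperature. ADP-Glo reagent and kinase detection substrate followed, luminescence was read on an Envision, and IC50 came from non-linear regression.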
(In general: ADP-Glo first removes unused ATP, then detects ADP through luciferase.)

For data set [4] the following is noted: from COC(=O)c1cccc2nc(NC(=O)c3cccc(C(=O)O)c3)n(C(C)CCCCN)c12; amide bond; 14-membered ring; HATU/TEA; dioxane; 2.2 mM; 25.0 °C; 16.0 h; 2 steps.
For data set [5], the system named is phosphorylated p38 (TAK1 activity) in THP-1 cells. Briefly: Cell-based p38 phosphorylation assay (Western blot). As for the experimental part: The cellular activity of example compounds 2, 3 and 9 and the comparative example (i.e. takinib) for inhibiting TAK1 activity was evaluated using an in vitro functional cell assay.
THP-1 cells were incubated at 37° C. in 5% CO2. THP-1 cells were cultured in RPMI 1640, 10% FBS, 1% Penicillin-Streptomycin.
THP-1 cells were treated with 100 nM phorbol 12-myristate 13-acetate (PMA) to induce macrophage differentiation and seeded at the density of 1×10^6 cells/well (2 ml/well in a 6-well plate) for 72 hours. The cell culture media was then replaced with PMA-free media and incubated for further 48 hours. Test compounds were prepared as 200×final assay concentration stocks in DMSO (final concentrations in the assay were 10-0.03 μM in 0.5% DMSO, details provided below). Following THP-1 cell differentiation, cells were treated with different concentrations of the control compound NG25 (CAS No.:1315355-93-1, Tan L, et al. J Med Chem. 2015, 58(1), 183-96) or test compounds (10 μl/well) for 30 minutes followed by 200 ng/ml LPS for 30 minutes.
Test items were kept as 10 mM stock solutions in 100% DMSO. The serial dilution of compounds was prepared as 200× serial dilutions of desired final concentration in […] to reach 0.5% DMSO working solution (see Table 3 below).
Dilution series of compounds from 10 μM final highest concentration to 0.03 μM final low concentration were first made in DMSO (see Table 3), 10 μl of each dilution was mixed into 2 ml of cell cultures (0.5% DMSO per well).
10 μl of DMSO was added to the control. All plates were incubated at 37° C., 5% CO2 for 30 minutes and LPS was added to a final concentration of 200 ng/ml.
For Western blot analysis, cells were lysed (50 mM Tris, 150 mM NaCl, 1 mM EDTA, 1% Triton-X100, 1 mM DTT, complete protease and PhosStop phosphatase inhibitor) after indicated treatment and run on NuPAGE Bis-Tris gel 4-12% gradient (Invitrogen). Following transfer to PVDF membrane and blocking in 5% BSA in PBST, membranes were incubated with primary antibody overnight (specific for phosphorylated p38; Cell Signaling, 1:1,000 dilution). After incubation with species-specific secondary antibodies for 1 hour at room temperature, the membranes were visualized with the ECL SuperSignal™ West Pico PLUS Chemiluminescent Substrate (Thermo Scientific). The images were captured with iBright Western Blot Imaging Systems (Invitrogen) and quantified with ImageJ software (Java-based image processing program developed at the National Institutes of Health and the Laboratory for Optical and Computational Instrumentation). Anti-β-actin antibodies were used as the loading control for whole-cell extracts in all samples (anti-β actin; Sigma-Aldrich, 1:5000 dilution, 1 hour incubation).
For immunoblotting, cells were lysed directly in six-well plates by incubating for 30 min at 4° C. in 60 μl Triton lysis buffer. The lysates were centrifuged for 15 minutes at 13,000×g at 4° C. Equal amount of protein from each supernatants were resuspended with 5× sample buffer. Samples were boiled for 10 minutes and then resolved by 4-12% SDS-PAGE (100 V). Proteins were transferred from gel to PVDF membranes ([…] pore size) following the recommended setting (90 minutes, 85 V). […]
For orientation: Immunoblotting shows a protein as a band on a membrane.

Sequence of human recombinant TAK1-TAB1 Kinase (TAK1 (1-303) and TAB1 (437-end)) (O43318 other isoform, or with tags, fused parts or gaps): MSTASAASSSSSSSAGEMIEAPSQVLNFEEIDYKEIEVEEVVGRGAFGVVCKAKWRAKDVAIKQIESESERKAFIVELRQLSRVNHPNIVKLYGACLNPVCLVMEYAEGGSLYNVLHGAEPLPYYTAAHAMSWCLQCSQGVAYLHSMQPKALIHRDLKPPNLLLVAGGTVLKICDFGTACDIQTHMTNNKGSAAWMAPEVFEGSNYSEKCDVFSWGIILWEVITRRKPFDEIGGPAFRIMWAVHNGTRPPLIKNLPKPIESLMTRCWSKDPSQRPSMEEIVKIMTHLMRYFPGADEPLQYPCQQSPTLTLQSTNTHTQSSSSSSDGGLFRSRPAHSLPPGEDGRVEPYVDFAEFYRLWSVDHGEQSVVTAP

`COC(=O)c1cccc2nc3n(c12)CCCCCNC(=O)c1cccc(c1)C(=O)N3` returned a ring closure, crude yield in data set [1] of 76%.

A word on the solubility: it is how much of the substance goes into solution per volume. A high value points to a readily soluble substance. As a reminder, the IC50 is the concentration at which inhibition is half-maximal. In the case of `COC(=O)c1cccc2nc3n(c12)C(C)CCCCNC(=O)c1cccc(c1)C(=O)N3` (centres unmarked) [Example 7, methyl 11-methyl-3,5-dioxo-1^1H-2,6-diaza-1(2,1)-benzo[d]imidazola-4(1,3)-benzenacycloundecaphane-1^7-carboxylate], the “solubility” value in data set [2] is 0.9 µM (≈ 0.378 µg/mL). In addition, the IC50 in data set [3] came to 4 nM. In addition, the ring closure, isolated yield in data set [4] is 21%.

For `CC1CCCCNC(=O)c2cccc(c2)C(=O)Nc2nc3cccc(C(=O)N4CCN(C(=O)OC(C)(C)C)CC4)c3n21` (centres unmarked) [Example 9, tert-butyl 4-(11-methyl-3,5-dioxo-1^1H-2,6-diaza-1(2,1)-benzo[d]imidazola-4(1,3)-benzenacycloundecaphane-1^7-carbonyl)piperazine-1-carboxylate], the “solubility” value in data set [2] stood at 30.9 µM (≈ 17.8 µg/mL). Moreover, the IC50 in data set [3] was 1 nM; in data set [5] (PMA-differentiated THP-1 cells, compound 30 minutes then 200 ng/ml LPS 30 minutes, read-out: IC50 (nM) in phospho-p38 cell assay) it was 600 nM. Also, the “potency and efficacy compared with Comparative Example 1 (takinib)” value in data set [5] (THP-1 cells, LPS, phospho-p38) is “greater”.
